The results in this text go back to PMC5770598, “Small molecules targeted to the microtubule–Hec1 interaction inhibit cancer cell growth through microtubule stabilization” (Oncogene, 2017).

Molecules are shown by their SMILES.

In test [1] the target is T1, MTs (assembled microtubules).
T1 construct: gene alpha-tubulin; assembled microtubules (polymer of alpha/beta-tubulin dimers), 6050 RU amine-coupled to COOH5 chip
Description: SPR, steady-state Scatchard plot. Format: binding. The note with it: microtubules immobilised on COOH5 chip; pH 7.4, 10 mM Hepes, 150 mM NaCl, 2 mM MgCl2, 0.05% P20, 2% DMSO; error printed as ±0.1.

Another test deals with T2, tubulin (dimeric).
T2 construct: gene alpha-tubulin; unassembled alpha/beta-tubulin dimer, 3900 RU amine-coupled to COOH5 chip
Description: SPR, steady-state Scatchard plot. It counts as binding. The following applies: tubulin dimers immobilised on COOH5 chip; pH 7.4, 10 mM Hepes, 150 mM NaCl, 2 mM MgCl2, 0.05% P20, 2% DMSO. (SPR reads the build-up and loss of mass on a sensor chip optically.)

For `O=C(/C=C/c1cn(CC(O)CN2CCCCC2)c2ccccc12)c1ccc(Br)cc1` (centres unmarked) [SM15], the Kd (commonly a measure of binding affinity in units of concentration) in test [1] came out at 940 ± 130 nM; on tubulin (dimeric), 1800 ± 400 nM.
